Laboratory results reported in patent publication US11591341B2 (ALIGOS THERAPEUTICS, INC., priority 2019, dated 2023).

Test system: HBV
Test: HBV-DNA Antiviral Assay Using HepG2.117 Cells (intracellular HBV DNA by qPCR)
Format: cell-based, hepatitis B virus (genotype D)
Settings: Hepatitis B virus, HepG2.117
Method in brief: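 Endpoint: qPCR copy number of intracellular HBV DNA after 3-day compound exposure, with inhibition set relative to the 2% DMSO control. The cells were doxycycline-free HepG2.117 carrying a Tet-off genotype D genome, dosed at nine 4-fold dilutions. A duplicate plate gave ATP-based viability (CC50).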

Question: With O=C(NCc1ccccc1)c1c2n(c(=O)n1-c1ccc(N3CCO[C@H](C(F)(F)F)C3)cc1)CCN(C(=O)c1ccc(Br)c(Cl)c1)C2 [Example 415, N-benzyl-7-(4-bromo-3-chloro-benzoyl)-2-[4-(2,2-difluoro-1λ^2-fluora-8-oxa-5-azaspiro[2.5]octan-5-yl)phenyl]-3-oxo-6,8-dihydro-5H-imidazo[1,5-a]pyrazine-1-carboxamide] as the compound, how does the EC50 read?
Answer: 100 to 500 nM

Question: With Cc1nc2cc(-n3c(C(=O)NCc4ccccc4)c4n(c3=O)CCN(C(=O)c3ccc(Br)c(Cl)c3)C4)ccc2o1 [Example 418, N-benzyl-7-(4-bromo-3-chloro-benzoyl)-2-(2-methyl-1,3-benzoxazol-5-yl)-3-oxo-6,8-dihydro-5H-imidazo[1,5-a]pyrazine-1-carboxamide] as the compound, how does the EC50 read?
Answer: 100 to 500 nM

Question: How did the EC50 turn out when O=C(NCc1ccccc1)c1c2n(c(=O)n1-c1ccc(N3CCC3=O)cc1)CCN(C(=O)c1ccc(Br)c(Cl)c1)C2 [Example 419, N-benzyl-7-(4-bromo-3-chloro-benzoyl)-3-oxo-2-[4-(2-oxoazetidin-1-yl)phenyl]-6,8-dihydro-5H-imidazo[1,5-a]pyrazine-1-carboxamide] was run?
Answer: 500 to 5000 nM

Question: How did the EC50 turn out when O=C(NCc1ccccc1-n1cc(F)cn1)c1c2n(c(=O)n1-c1ccc(OC3CC3)cc1)CCN(C(=O)c1ccc(Br)c(Cl)c1)C2 [Example 421, 7-(4-bromo-3-chloro-benzoyl)-2-[4-(cyclopropoxy)phenyl]-N-[[2-(4-fluoropyrazol-1-yl)phenyl]methyl]-3-oxo-6,8-dihydro-5H-imidazo[1,5-a]pyrazine-1-carboxamide] was run?
Answer: < 100 nM

Question: How did the EC50 turn out when O=C(NCc1ccccc1-n1cncn1)c1c2n(c(=O)n1-c1ccc(OC3CC3)cc1)CCN(C(=O)c1ccc(Br)c(Cl)c1)C2 [Example 422, 7-(4-bromo-3-chloro-benzoyl)-2-[4-(cyclopropoxy)phenyl]-3-oxo-N-[[2-(1,2,4-triazol-1-yl)phenyl]methyl]-6,8-dihydro-5H-imidazo[1,5-a]pyrazine-1-carboxamide] was run?
Answer: < 100 nM

Question: For O=C(NCc1ccccc1-c1ccncn1)c1c2n(c(=O)n1-c1ccc(OCC(F)(F)F)cc1)CCN(C(=O)c1ccc(Br)c(Cl)c1)C2 [Example 423, 7-(4-bromo-3-chloro-benzoyl)-3-oxo-N-[(2-pyrimidin-4-ylphenyl)methyl]-2-[4-(2,2,2-trifluoroethoxy)phenyl]-6,8-dihydro-5H-imidazo[1,5-a]pyrazine-1-carboxamide], which EC50 is on record?
Answer: < 100 nM

Question: How did the EC50 turn out when O=C(NCc1ccccc1-c1ccncn1)c1c2n(c(=O)n1-c1ccc(OC3CC3)cc1)CCN(C(=O)c1ccc(Br)c(Cl)c1)C2 [Example 424, 7-(4-bromo-3-chloro-benzoyl)-2-[4-(cyclopropoxy)phenyl]-3-oxo-N-[(2-pyrimidin-4-ylphenyl)methyl]-6,8-dihydro-5H-imidazo[1,5-a]pyrazine-1-carboxamide] was run?
Answer: < 100 nM

Question: For O=C(NCc1ccccc1-c1ncc[nH]1)c1c2n(c(=O)n1-c1ccc(OCC(F)(F)F)cc1)CCN(C(=O)c1ccc(Br)c(Cl)c1)C2 [Example 425, 7-(4-bromo-3-chloro-benzoyl)-N-[[2-(1H-imidazol-2-yl)phenyl]methyl]-3-oxo-2-[4-(2,2,2-trifluoroethoxy)phenyl]-6,8-dihydro-5H-imidazo[1,5-a]pyrazine-1-carboxamide], which EC50 is on record?
Answer: < 100 nM

Question: Which EC50 does the source give for N#Cc1cc(C(=O)N2CCn3c(c(C(=O)NCc4ccccc4-c4ncccn4)n(-c4ccc(-n5cccn5)cc4)c3=O)C2)ccc1Br [Example 426, 7-(4-bromo-3-cyano-benzoyl)-3-oxo-2-(4-pyrazol-1-ylphenyl)-N-[(2-pyrimidin-2-ylphenyl)methyl]-6,8-dihydro-5H-imidazo[1,5-a]pyrazine-1-carboxamide] here?
Answer: 100 to 500 nM

Question: O=C(NCc1ccccc1)c1c2n(c(=O)n1-c1ccc(-n3cc(F)cn3)cc1)CCN(C(=O)c1ccc(Br)c(Cl)c1)C2 [Example 427, N-benzyl-7-(4-bromo-3-chloro-benzoyl)-2-[4-(4-fluoropyrazol-1-yl)phenyl]-3-oxo-6,8-dihydro-5H-imidazo[1,5-a]pyrazine-1-carboxamide] was tested. Which EC50 did it give?
Answer: 100 to 500 nM

Question: With CC(C)(Oc1ccc(CNC(=O)c2c3n(c(=O)n2-c2ccc(OCC(F)(F)F)cc2)CCN(C(=O)c2ccc(Br)c(Cl)c2)C3)c(F)c1)C(N)=O [Example 428, N-[[4-(2-amino-1,1-dimethyl-2-oxo-ethoxy)-2-fluoro-phenyl]methyl]-7-(4-bromo-3-chloro-benzoyl)-3-oxo-2-[4-(2,2,2-trifluoroethoxy)phenyl]-6,8-dihydro-5H-imidazo[1,5-a]pyrazine-1-carboxamide] as the compound, how does the EC50 read?
Answer: 100 to 500 nM

Question: Which EC50 does the source give for O=C(NCc1ccccc1-c1ncccn1)c1c2n(c(=O)n1-c1ccc(-n3cccn3)cc1)CCN(C(=O)c1ccc(Br)c(Cl)c1)C2 [Example 429, 7-(4-bromo-3-chloro-benzoyl)-3-oxo-2-(4-pyrazol-1-ylphenyl)-N-[(2-pyrimidin-2-ylphenyl)methyl]-6,8-dihydro-5H-imidazo[1,5-a]pyrazine-1-carboxamide] here?
Answer: < 100 nM

Question: For O=C(NCc1ccccc1)c1c2n(c(=O)n1-c1ccc(-c3ncc[nH]3)cc1)CCN(C(=O)c1ccc(Br)c(Cl)c1)C2 [Example 430, N-benzyl-7-(4-bromo-3-chloro-benozyl)-2-[4-(1H-imidazol-2-yl)phenyl]-3-oxo-6,8-dihydro-5H-imidazo[1,5-a]pyrazine-1-carboxamide], which EC50 is on record?
Answer: 500 to 5000 nM

Question: Which EC50 does the source give for O=C1COc2ccc(CNC(=O)c3c4n(c(=O)n3-c3ccc(OC5CC5)cc3)CCN(C(=O)c3ccc(Br)c(Cl)c3)C4)cc2N1 [Example 431, 7-(4-bromo-3-chloro-benzoyl)-2-[4-(cyclopropoxy)phenyl]-3-oxo-N-[(3-oxo-4H-1,4-benzoxazin-6-yl)methyl]-6,8-dihydro-5H-imidazo[1,5-a]pyrazine-1-carboxamide] here?
Answer: 500 to 5000 nM

Question: How did the EC50 turn out when N#Cc1cc(C(=O)N2CCn3c(c(C(=O)NCc4ccccc4-c4ncccn4)n(-c4ccc(OC5CC5)cc4)c3=O)C2)ccc1Br [Example 432, 7-(4-bromo-3-cyano-benzoyl)-2-[4-(cyclopropoxy)phenyl]-3-oxo-N-[(2-pyrimidin-2-ylphenyl)methyl]-6,8-dihydro-5H-imidazo[1,5-a]pyrazine-1-carboxamide] was run?
Answer: 100 to 500 nM

Question: How did the EC50 turn out when N#Cc1cc(C(=O)N2CCn3c(c(C(=O)NCc4ccccc4-c4ncco4)n(-c4ccc(OC5CC5)cc4)c3=O)C2)ccc1Br [Example 433, 7-(4-bromo-3-cyano-benzoyl)-2-[4-(cyclopropxy)phenyl]-N-[(2-oxazol-2-ylphenyl)methyl]-3-oxo-6,8-dihydro-5H-imidazo[1,5-a]pyrazine-1-carboxamide] was run?
Answer: 100 to 500 nM

Question: O=C(NCc1ccccc1-c1nnco1)c1c2n(c(=O)n1-c1ccc(OC3CC3)cc1)CCN(C(=O)c1ccc(Br)c(Cl)c1)C2 [Example 434, 7-(4-bromo-3-chloro-benzoyl)-2-[4-(cyclopropoxy)phenyl]-N-[[2-(1,3,4-oxadiazol-2-yl)phenyl]methyl]-3-oxo-6,8-dihydro-5H-imidazo[1,5-a]pyrazine-1-carboxamide] was tested. Which EC50 did it give?
Answer: < 100 nM

Question: O=C(NCc1c(F)cccc1-n1cccn1)c1c2n(c(=O)n1-c1ccc(OC3CC3)cc1)CCN(C(=O)c1ccc(Br)c(Cl)c1)C2 [Example 435, 7-(4-bromo-3-chloro-benzoyl)-2-[4-(cyclopropoxy)phenyl]-N-[(2-fluoro-6-pyrazol-1-yl-phenyl)methyl]-3-oxo-6,8-dihydro-5H-imidazo[1,5-a]pyrazine-1-carboxamide] was tested. Which EC50 did it give?
Answer: < 100 nM

Question: COc1ccc([C@H](C)NC(=O)c2c3n(c(=O)n2-c2ccc(-n4cccn4)cc2)CCN(C(=O)c2ccc(Br)c(Cl)c2)C3)cc1 [Example 442, 7-(4-bromo-3-chloro-benzoyl)-N-[(1S)-1-(4-methoxyphenyl)ethyl]-3-oxo-2-(4-pyrazol-1-ylphenyl)-6,8-dihydro-5H-imidazo[1,5-a]pyrazine-1-carboxamide] was tested. Which EC50 did it give?
Answer: 100 to 500 nM

Question: For COc1ccc([C@H](C)NC(=O)c2c3n(c(=O)n2-c2ccc(OC4CC4)cc2)CCN(C(=O)c2ccc(Br)c(Cl)c2)C3)cc1 [Example 443, 7-(4-bromo-3-chloro-benozyl)-2-[4-(cyclopropoxy)phenyl]-N-[(1S)-1-(4-methoxyphenyl)ethyl]-3-oxo-6,8-dihydro-5H-imidazo[1,5-a]pyrazine-1-carboxamide], which EC50 is on record?
Answer: 100 to 500 nM

Question: Which EC50 does the source give for N#Cc1cc(C(=O)N2CCn3c(c(C(=O)NCc4ccccc4-c4cccnn4)n(-c4ccc(OC5CC5)cc4)c3=O)C2)ccc1Br [Example 445, 7-(4-bromo-3-cyano-benzoyl)-2-[4-(cyclopropoxy)phenyl]-3-oxo-N-[(2-pyridazin-3-ylphenyl)methyl]-6,8-dihydro-5H-imidazo[1,5-a]yprazine-1-carboxamide] here?
Answer: 100 to 500 nM

Question: How did the EC50 turn out when O=C(NCc1ccccc1)c1c2n(c(=O)n1-c1ccc(OC3CC3)cc1)CCN(C(=O)c1cc(Cl)c(Br)cc1F)C2 [Example 446, N-benzyl-7-(4-bromo-5-chloro-2-fluoro-benzoyl)-2-[4-(cyclopropoxy)phenyl]-3-oxo-6,8-dihydro-5H-imidazo[1,5-a]pyrazine-1-carboxamide] was run?
Answer: > 5000 nM

Question: COc1ccc([C@@H](C)NC(=O)c2c3n(c(=O)n2-c2ccc(OC4CC4)cc2)CCN(C(=O)c2ccc(Br)c(Cl)c2)C3)cc1 [Example 453, 7-(4-bromo-3-chloro-benzoyl)-2-[4-(cyclopropoxy)phenyl]-N-[(1R)-1-(4-methoxyphenyl)ethyl]-3-oxo-6,8-dihydro-5H-imidazo[1,5-a]pyrazine-1-carboxamide] was tested. Which EC50 did it give?
Answer: 100 to 500 nM

Question: How did the EC50 turn out when COc1ccc([C@@H](C)NC(=O)c2c3n(c(=O)n2-c2ccc(-n4cccn4)cc2)CCN(C(=O)c2ccc(Br)c(Cl)c2)C3)cc1 [Example 454, 7-(4-bromo-3-chloro-benzoyl)-N-[(1R)-1-(4-methoxyphenyl)ethyl]-3-oxo-2-(4-pyrazol-1-ylphenyl)-6,8-dihydro-5H-imidazo[1,5-a]pyrazine-1-carboxamide] was run?
Answer: 100 to 500 nM

Question: For Cc1ccn(-c2ccc(-n3c(C(=O)NCc4ccccc4)c4n(c3=O)CCN(C(=O)c3ccc(Br)c(Cl)c3)C4)cc2)n1 [Example 455, N-benzyl-7-(4-bromo-3-chloro-benzoyl)-2-[4-(3-methylpyrazol-1-yl)phenyl]-3-oxo-6,8-dihydro-5H-imidazo[1,5-a]pyrazine-1-carboxamide], which EC50 is on record?
Answer: 100 to 500 nM
